In test [1] the target is T1, LXR-alpha (Homo sapiens, UniProt Q13133).
T1 sequence (Q13133 1-447): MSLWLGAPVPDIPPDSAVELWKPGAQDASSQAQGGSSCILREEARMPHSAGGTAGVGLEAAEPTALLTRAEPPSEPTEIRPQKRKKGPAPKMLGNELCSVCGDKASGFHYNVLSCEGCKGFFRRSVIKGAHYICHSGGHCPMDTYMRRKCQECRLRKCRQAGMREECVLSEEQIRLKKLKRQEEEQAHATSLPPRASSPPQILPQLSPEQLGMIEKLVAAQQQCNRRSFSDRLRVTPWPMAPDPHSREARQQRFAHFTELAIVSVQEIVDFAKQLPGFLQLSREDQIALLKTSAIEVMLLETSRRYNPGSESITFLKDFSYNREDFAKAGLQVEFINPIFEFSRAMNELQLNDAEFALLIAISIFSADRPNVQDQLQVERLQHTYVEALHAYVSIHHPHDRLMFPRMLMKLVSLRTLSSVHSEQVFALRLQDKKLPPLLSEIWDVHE
T1 sequence (P19793 1-462 partner): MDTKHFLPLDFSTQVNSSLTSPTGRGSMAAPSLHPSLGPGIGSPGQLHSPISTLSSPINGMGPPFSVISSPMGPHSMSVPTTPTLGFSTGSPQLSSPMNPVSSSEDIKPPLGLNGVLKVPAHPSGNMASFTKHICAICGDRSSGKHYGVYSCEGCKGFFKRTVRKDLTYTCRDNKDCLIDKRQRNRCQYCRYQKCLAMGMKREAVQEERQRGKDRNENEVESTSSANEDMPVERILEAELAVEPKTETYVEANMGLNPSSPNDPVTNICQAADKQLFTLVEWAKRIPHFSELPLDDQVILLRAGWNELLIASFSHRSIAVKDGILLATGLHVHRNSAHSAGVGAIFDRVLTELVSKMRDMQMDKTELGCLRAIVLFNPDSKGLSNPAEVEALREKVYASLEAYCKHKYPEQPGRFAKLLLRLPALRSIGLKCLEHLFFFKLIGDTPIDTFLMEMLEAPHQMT
Kind of test: LXR-alpha/RXR LRE-luciferase reporter in transfected BHK cells. It counts as cell-based. More on the design: expressed in transfected cells; host or cells: BHK (baby hamster kidney cells), transient transfection as for HEK293T. The note with it: for stimulation of LXR-alpha-driven gene transcription [(LXRE)-luciferase activity] / effect on LXR-alpha-driven expression of luciferase: 1 uM; for stimulation of LXR-alpha-driven gene transcription [(LXRE)-luciferase activity]: 3 uM and 10 uM; for effect on LXR-alpha-driven expression of luciferase / LXR-alpha-driven luciferase expression, increase compared with vehicle-treated cells: 18 h. The protocol:
B. Baby hamster kidney cells (5×10^5 cells/well) were cultured and transiently transfected as described above (Methods A.) for HEK293T cells. After transfection, the culture medium was replaced by serum-free DMEM, and the cells were incubated for 18 h with either Compound I or Compound II at 1×10^−6 M, 3×10^−6 M or 10^−5 M each, or vehicle [DMSO, 0.1% (v/v) final concentration], or GW3965 at a concentration of 10^−6 M. LXR-alpha activation was determined as described in A.
For orientation: Reporter assays use an easily measured gene product as a stand-in for the process of interest.

Test [2] relates to ABCG1. The experiment in a line: ABCG1 expression in HepG2 cells (real time PCR). It counts as cell-based, human. The note with it: 10 uM, 6 h.
Protocol: (§1) The cells were incubated for 6 h in the presence of either Compound I (10 uM), or Compound II (10 uM), or the commercial LXR agonist GW3965 (1 uM), or Vehicle [DMSO, 0.1% (v/v)]). To obtain RNA, at the end of the incubation the cells were collected by centrifugation at 1,000 rpm for 2 min, washed with phosphate buffered saline, and lysed in 300 ul TRIZOL (Invitrogen). RNA samples were suspended in ul of RNAse free water, and their concentration determined (NanoDrop spectrophotometer). The ratio of the absorbance at 260 and 280 nm was used to assess RNA purity of an RNA preparation, with a value of 1.8-2.0 indicating pure RNA. To obtain cDNA, 1 ug of total RNA was denatured by incubating for 5 min at 70° C., before the addition of a mixture containing 0.5 ug oligo-dT primers and 25 ng/ml of random primers (Invitrogen), 1.0 mM dNTPs (Invitrogen), and 200 U M-MLV reverse transcriptase (Promega); after this the mixture was retrotranscribed at 37° C. for 60 min, followed by an incubation at 95° C. for 5 min to inactivate the enzyme. For the real time PCR amplification (Stratagene Thermal Cycler), cDNA samples were diluted 1/5 to 1/10 depending on the target amplification product. Calibration curves were obtained by use of eight successive 1:2 sample dilutions. Amplifications were carried out in a 25 ul final volume (5 ul cDNA sample plus 20 ul of reaction mixture) in the presence of either 3, 4 or 5 mM MgCl2 (depending on the amplified sequence), 0.25 mM dNTPs (Invitrogen), 1.25 U Taq polymerase (Invitrogen), 1 μM of the specific primers according to the target amplification sequence, and 0.025 μl SYBR Green (Roche). Melting curves were used to assess the specificity of the amplification products. […]
The subject of test [3] is IL-8. Kind of test: IL-8 expression in UV-irradiated HaCaT cells (real time PCR). It is filed as cell-based, human. The note with it: 10 uM, 24 h after UV, normalized to GAPDH. The protocol: HaCaT cells—a human immortalized keratinocyte cell line—were exposed to 15 J/m^2 UVB (254 nm) irradiation. Twenty four hours after irradiation, the cells were harvested and RNA isolated to assess the expression of LXR-alpha, LXR-beta, ABCA1, TNF-alpha, IL-6, and IL-8 genes. HaCaT cells were cultured in DMEM supplemented with 10% (v/v) fetal bovine serum, penicillin (100 U/mL), streptomycin ([…]) and glutamine (2 mM). […] The expressions of ABCA1, TNF-alpha, IL-6, IL-8, LXR-alpha, and LXR-beta were normalized according to glyceraldehyde-3-phosphate dehydrogenase (GAPDH) expression. The results of three independent assays, carried out in duplicate for each condition, are reported.

For test [4], the system named is SRBEP-1. Kind of test: SRBEP-1 expression in HepG2 cells (real time PCR). It counts as cell-based, human. The conditions noted are these: 1 uM, 3 uM and 10 uM, 6 h. (Quantitative PCR measures a nucleic acid by following its amplification.)
Protocol: as §1
Test [5] concerns ABCA1. The experiment in a line: ABCA1 expression in HL-60 cells (real time PCR). It is filed as cell-based, human. The note with it: 10 uM, 6 h. The procedure:
To investigate the effects of Compounds I and II on the expression of three genes involved in lipid metabolism [fatty acid synthase (FAS); and two ATP-dependent cholesterol and phospholipid transporters, such as ABCA1 and ABCG1], human promyelocytic leukemia cells (HL-60) that endogenously express LXR-alpha and LXR-beta were incubated in the presence of either Comp I or Comp II (10 uM), or GW3965 (1 uM) for 6 h. mRNA levels for FAS, ABCA1 and ABCG1 were determined by real time PCR and results were normalized to GAPDH expression. HL-60 (10^6 cells/well) were cultured in RPMI medium supplemented with 5% (v/v) fetal bovine serum, penicillin (100 IU/mL), streptomycin (100 ug/mL) y cyprofloxacin (0.4 ug/mL). […] To obtain RNA, at the end of the incubation the cells were collected by centrifugation at 1,000 rpm for 2 min, washed with phosphate buffered saline, and lysed in 300 ul TRIZOL (Invitrogen). RNA samples were suspended in […] of RNAse free water, and their concentration determined (NanoDrop spectrophotometer). […] To obtain cDNA, 1 ug of total RNA was denatured by incubating for 5 min at 70° C., before the addition of a mixture containing 0.5 ug oligo-dT primers and 25 ng/ml of random primers (Invitrogen), 1.0 mM dNTPs (Invitrogen), and 200 U M-MLV reverse transcriptase (Promega); after this the mixture was retrotranscribed at 37° C. for 60 min, followed by an incubation at 95° C. for 5 min to inactivate the enzyme. For the real time PCR amplification (Stratagene Thermal Cycler), cDNA samples were diluted 1/5 to 1/10 depending on the target amplification product. Calibration curves were obtained by use of eight successive 1:2 sample dilutions. Amplifications were carried out in a 25 ul final volume (5 ul cDNA sample plus 20 ul of reaction mixture) in the presence of either 3, 4 or 5 mM MgCl2 (depending on the amplified sequence), 0.25 mM dNTPs (Invitrogen), 1.25 U Taq polymerase (Invitrogen), 1 μM of the specific primers according to the target amplification sequence, and 0.025 μl SYBR Green (Roche). […]

Turning to `CC[C@@H](C(C)C)[C@H](O)[C@@H](O)[C@@H](C)[C@H]1CC[C@H]2[C@@H]3CCC4=CC(=O)CC[C@]4(C)[C@H]3CC[C@]12C` [Compound I, (22S,23S)-22,23-dihydroxystigmast-4-en-3-one], in test [1], the “stimulation of LXR-alpha-driven gene transcription [(LXRE)-luciferase activity]” value is given as “within the same concentration range as GW3965” and the “effect on LXR-alpha-driven expression of luciferase” value is given as “no effect”. The “LXR-alpha-driven luciferase expression, increase compared with vehicle-treated cells” value in test [1] (3 uM) worked out at 3 fold. Also, the “induction of ABCG1 expression” value in test [2] was 8 times. Moreover, the “IL-8 expression versus DMSO-treated cells” value in test [3] was “significantly lower”. Moreover, in test [4], the “induction of SRBEP-1 expression” value is “did not induce”. The “effect on ABCA1 expression” value in test [5] is “none of the test compounds significantly affected”.

Take `CC[C@@H](C(C)C)[C@H](O)[C@@H](O)[C@@H](C)[C@H]1CC[C@H]2[C@@H]3CCC4=CC(=O)C=C[C@]4(C)[C@H]3CC[C@]12C` [Compound II, (22S,23S)-22,23-dihydroxystigmasta-1,4-dien-3-one]: in test [1], the “stimulation of LXR-alpha-driven gene transcription [(LXRE)-luciferase activity]” value is “within the same concentration range as GW3965” and the “effect on LXR-alpha-driven expression of luciferase” value is given as “no effect”. Besides, the “LXR-alpha-driven luciferase expression, increase compared with vehicle-treated cells” value in test [1] (3 uM) worked out at 3 fold. Besides, the “LXR-alpha-driven luciferase expression, increase compared with vehicle-treated cells” value in test [1] (10 uM) was 3 fold. Further, the “induction of ABCG1 expression” value in test [2] was 3 times. For the same compound, in test [3], the “IL-8 expression versus DMSO-treated cells” value is on record as “significantly lower”. Besides, the “induction of SRBEP-1 expression” value in test [4] is “did not induce”. For the same compound, the “effect on ABCA1 expression” value in test [5] is given as “none of the test compounds significantly affected”.

The values above are taken from US20190365784A1, “USE OF BRASSINOSTEROID ANALOGS FOR THE TREATMENT OF DERMAL DISORDERS BY SELECTIVELY MODULATING LIVER X RECEPTORS (LXR) AND DERMAL DISEASE TREATMENT BY BRASSINOSTEROID ANALOGS ACTING AS SELECTIVE LIVER X RECEPTOR (LXR) MODULATORS” (CONSEJO NACIONAL DE INVESTIGACIONES CIENTÍFICAS Y TÉCNICAS …, priority 2015, published 2019).
